Data reported in patent US9029346B1, “Irreversible inhibitors of DNA polymerase beta” (The Johns Hopkins University, priority 2013, dated 2015).

Columns and labels:
Pol β = Pol β (Homo sapiens, UniProt P06746); assay type: biochemical
Experimental: It is worth noting that the well should be full to obtain accurate fluorescence data (approximately 380 μL). […] To determine the polymerase activity in the presence of each inhibitor, a solution of 13 (3.8 μL, 5 μM) and dTTP (3.8 μL, 10 mM) were also added (to make final [13]=50 nM and 100 μM of dTTP). The plates were immediately placed in the microtiter plate reader and the measurements were recorded.
It is worth noting that the well should be full in order to get accurate fluorescence data (approximately 380 μL). The solutions of inhibitors (40×) in acetonitrile obtained after pentenyl deprotection (10 μL) were transferred to the wells containing Pol β and incubated for 20 min. To determine the polymerase activity of enzyme in the presence of each inhibitor, solutions of ternary complex 13 (3.8 μL, 5 μM) and dTTP (3.8 μL, 10 mM) were also added (to make final 50 nM of 13 and 100 μM of dTTP). The plates were placed immediately in the microtiter plate reader Cary Eclipse Varian and the measurements started.
The inhibitor solution (40×, 10 μL) was added to the first well and preincubated for 20 min. At this time, the same portion of inhibitor was added to the second well. […] Once the inhibitor was added to the fifth well, solutions of ternary complex 13 (3.8 pit, 5 μM) and dTTP (3.8 μL, 10 mM) were also added and the fluorescence measurement was started immediately.

[1] = test system: Klenow fragment of DNA polymerase 1; assay: Klenow exo- strand displacement synthesis fluorescence assay (selectivity); assay type: biochemical, E. coli; details: 10 μM, same conditions as Pol β, FIG. 9
Experimental: […]. The volume of the solution in each well is approximately 400 μL. Pol β (final concentration, 10 nM) or Klenow exo-(final concentration 5 nM) is added and the measurement of the fluorescence is started immediately.
More than one dozen polymerases exist in a human cell. Because there is not access to each of these, the Klenow fragment of DNA polymerase 1 from E. coli was used as a primitive test of the inhibitor's (3a) selectivity. […]. However, the efficacy of the 1,4-dicarbonyl containing inhibitor (1a) was compromised by thiols, presumably due to nucleophilic addition (FIG. 10). […]

[2] = test system: DU145 prostate cancer cells; assay type: cell-based; details: for DU145 cells surviving treatment: 40 μM, FIG. 13A
Experimental: DU 145 cells were obtained from the American Type Culture Collection (ATCC, HTB-81, Manassas, Va.) and maintained in RPMI 1640 culture medium (Sigma-Aldrich R8758, St. Louis, Mo.), supplemented with 10% fetal bovine serum (Sigma-Aldrich F6178, St. Louis, Mo.). Cultures were grown at 37° C. in a humidified atmosphere of 5% carbon dioxide without any antibiotics and subcultured when they reached confluence. For clonogenic survival analysis, the appropriate number of cells were grown in standard 6-well tissue culture dishes in the growth media (2 mL per well). After 2 days, the cells were treated with Pol β inhibitors (3a or 18) by addition of sterile stock solution in water directly to the growth media to the desired final concentrations. Cells were treated similarly with methyl methanesulfonate (MMS, Sigma-Aldrich, St. Louis, Mo.). For combined treatments, 18 was added to the cells first followed by MMS. The compounds remained present throughout the entire assay. Two weeks after the treatment, the cells were fixed and stained with 0.2% solution of crystal violet in 50% methanol. Colonies with ≧50 cells were then counted. All treatments were carried out in triplicate.
[…]. Consequently, DU145 cell survival was measured as a function of MMS concentration, without and with 18 at a concentration (20 μM) where the proinhibitor itself results in approximately 45% cell death. […] […].

[3] = test system: DU145 lysate lyase activity; assay: Lyase activity of DU145 cell extracts (lysates) on 3′-32P-15
Experimental: The aliquots were kept on ice for 1 h before mixing with loading buffer (5 μL). The samples were analyzed by 20% denaturing PAGE and quantified using a phosphorimager.
Cells were harvested by mild trypsinzation. The cells were then washed three times with phosphate buffered saline. Cell pellets were suspended in 1× Passive Lysis Buffer (PBL, Promega Corporation, E1941, Madison, Wis.) at concentration of 1×10^7 cells per mL and frozen in aliquots at −80° C. Protein concentrations were determined by Bio-Rad protein assay dye (Bio-Rad, 500-0006, Hercules, Calif.) according to the manufacturer's protocol and using bovine serum albumin as a standard.

Pol β lyase activity = Pol β lyase activity (Homo sapiens, UniProt P06746); assay: Pol β lyase (dRPase) activity on 3′-32P-15 by gel electrophoresis
Experimental: The ability of 1a to inhibit Pol β's dRPase activity was examined using 3′-^32P-15 in which the oligonucleotide containing dRP was labeled.
The DNA substrate was added to the reaction following preincubation of 1a with Pol β and subsequent 100-fold dilution. The lyase reaction was monitored by gel electrophoresis.

[4] = test system: mouse embryonic fibroblast cell lysates lyase activity; assay: Lyase (dRPase) activity of mouse embryonic fibroblast lysates on 3′-32P-15; assay type: biochemical; details: for Rate of product formation: inhibitor + (18, 50 μM), 32 μg protein
[5] = Conversion of bisacetate proinhibitor to 3a in DU145 lysate (TLC analysis); assay type: in vitro ADME

Structure (SMILES): COc1cc(Cl)c(/C=N/OC2C[C@H](n3cc(C)c(=O)[nH]c3=O)O[C@@H]2COP(=O)(OC)OCC2CC(O)OC2O)c(Cl)c1O (stereo partly shown) [2a]
- effect on Pol β activity in strand displacement assay (Pol β): comparable inhibition activity as 1a

Structure (SMILES): COc1cc(Cl)c(/C=N/OC2C[C@H](n3cc(C)c(=O)[nH]c3=O)O[C@@H]2COP(=O)(O)OCC2CC(O)OC2O)c(Cl)c1O (stereo partly shown) [3a]
- effect on Klenow fragment's activity [1]: no effect
- DU145 cells surviving treatment [2]: 12%
- lyase activity remaining ([3]; 150 μM): more than 30%

Structure (SMILES): COc1cc(Cl)c(/C=N/OC2C[C@H](n3cc(C)c(=O)[nH]c3=O)O[C@@H]2COP(=O)(OC)OCCC=O)c(Cl)c1O (stereo partly shown) [compound 16]
- effect on Pol β lyase activity (Pol β lyase activity): had no effect

Structure (SMILES): COc1cc(Cl)c(/C=N/OC2C[C@H](n3cc(C)c(=O)[nH]c3=O)O[C@@H]2COP(=O)(O)OCC2CC(OC(C)=O)OC2OC(C)=O)c(Cl)c1O (stereo partly shown) [compound 18]
- Rate of product formation ([4]; Pol β - lysate): 5.5 ± 1.5 ×10^−1 % · min^−1
- Rate of product formation ([4]; Pol β wt lysate): 9.2 ± 2.4 ×10^−1 % · min^−1
- reduction of lyase activity ([4]; Pol β- cell lysates, 18 at 50 μM): less than 30%
- Rate of product formation ([4]; Pol β/λ - lysate): 11.0 ± 4.0 ×10^−1 % · min^−1
- Rate of product formation ([4]; Pol λ - lysate): 9.1 ± 2.3 ×10^−1 % · min^−1
- Rate of product formation ([4]; Pol λ wt lysate, aliquots at 2, 5, 10 min): 12.4 ± 3.2 ×10^−1 % · min^−1
- effect on lyase activity versus wild type cells ([4]; cells lacking Pol λ (Pol λ-), p=0.05): statistically indistinguishable
- effect on lyase activity versus Pol β- cells ([4]; double knock-out (Pol β-/Pol λ-) cells): within experimental error
- reduction of the rate of the lyase reaction ([4]; lysates from wild type cells, 18 at 50 μM): ~2 fold
- MMS concentration at and above which clear potentiation of cytotoxicity is seen [2]: ≥ 0.2 mM
- cell death ([2]; 20 μM, proinhibitor alone): approximately 45%
- DU145 cells surviving treatment [2]: approximately 0.01%
- time for conversion of bisacetate to 3a [5]: ≤ 5 min
- inhibition of DU145 lysate lyase activity ([3]; 150 μM): Almost complete inhibition
- preincubation time by which inactivation was complete ([3]; 18 at 50 μM, preincubation varied 5-60 min): ≤ 15 min
- lyase activity inhibition compared with 3a ([3]; 1 h preincubation, FIG. 11): significantly greater
- effect on Pol β lyase activity (Pol β lyase activity): had no effect
